One test has as its system rabbit iris-ciliary body. Nature of the test: Short-circuit current across intact rabbit ciliary epithelium (iris-ciliary body), 5 mM Ba2+. As to conditions: 30 μM, solvent-corrected. The text has this:
Adult male Dutch belted rabbits weighing 1.8-2.4 kg (Ace Animals, Boyertown, Pa.) were anesthetized with pentobarbital and sacrificed (Carre et al., J. Membr. Biol. 146:293-305, 1995). After enucleation, the iris-ciliary body (I-CB) was isolated as previously described (Carre et al., 1995, supra.). The experiments were in accordance with the Resolution on the Use of Animals in Research of the Association for Research in Vision and Ophthalmology.
The pupil and central iris were occluded with a Lucite disc, and the iris-ciliary body was mounted between the two halves of a Lucite chamber (1). The annulus of exposed tissue provided a projected surface area of 0.93 cm^2. Preparations were continuously bubbled with 95%O2-5%CO2 for maintenance of pH 7.4 in a Ringer's solution comprising (in mM): 110.0 NaCl, 10.0HEPES (acid), 5.0HEPES (Na^+), 30.0 NaHCO3, 2.5 CaCl2, 1.2 MgCl2, 5.9 KCl, and 10.0 glucose, at an osmolality of 305 mOsm. BaCl2 (5 mM) was added to the solution to block K^+ currents. The transepithelial potential was fixed at 0 mV, corrected for solution series resistance, and the short-circuit current was monitored on a chart recorder. Data were digitally acquired at 10 Hz via a DigiData 1200A converter and AxoScope 1.1 software (Axon Instruments, Foster City, Calif.). Automatic averaging was performed with a reduction factor of 100 to achieve a final sampling rate of 6/min. […]

A further test deals with HCE cells. As to the kind of experiment: Free intracellular Ca2+ in HCE cells (fura-2). Format: cell-based, human. The protocol:
In other cells, stimulation of the A3-receptor can lead to an elevation of intracellular Ca^2+(Kohno et al., supra.), so intracellular Ca^2+was monitored in HCE cells to provide an additional physiologic assay for the presence of A3 receptors. HCE cells grown on coverslips for 24-48 hrs were loaded with 1-5 μM fura-2 AM for 30-45 min at room temperature. The cells were subject to a post-incubation interval of 20-40 minutes at room temperature before recording began. The coverslips were mounted on a Nikon Diaphot microscope and visualized with a ×40 oil-immersion fluorescence objective. The emitted fluorescence (510 nm) from 10-12 confluent cells was acquired at a sampling frequency of 1 Hz following excitation at 340 nm and 380 nm, and the ratio was determined with a Delta-Ram system and Felix software (Photon Technology International Inc., Princeton, N.J.).Cells were perfused with an isotonic solution consisting of (in mM) 105 NaCl, 6HEPES (acid), 4HEPES (Na^+), 2 CaCl2, 1 MgCl2, 4 KCl, 5 glucose and 90 mannitol, at an osmolality of 327 mOsm, pH 7.4. […]
where Rmin and Rmax are the ratio of fluorescence at […] in the absence of Ca^2+, and in the presence of saturating Ca^2+, respectively. R is the ratio measured experimentally. The S2f and S2b are the fluorescence emitted at 380 nM in the Ca^2+ free and Ca^2+ bound states respectively. […]

In a further test the target is T1, human A3 receptor (Homo sapiens, UniProt P0DMS8).
T1 sequence (P0DMS8 1-318): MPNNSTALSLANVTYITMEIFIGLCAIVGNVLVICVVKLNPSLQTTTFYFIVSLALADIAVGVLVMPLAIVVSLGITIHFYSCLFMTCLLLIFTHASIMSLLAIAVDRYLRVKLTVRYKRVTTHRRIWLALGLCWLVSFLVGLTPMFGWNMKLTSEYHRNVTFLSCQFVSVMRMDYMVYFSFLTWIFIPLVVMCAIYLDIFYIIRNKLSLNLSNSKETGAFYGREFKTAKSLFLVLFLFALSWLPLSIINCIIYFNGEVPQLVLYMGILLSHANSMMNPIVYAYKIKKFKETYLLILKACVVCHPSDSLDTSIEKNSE
As to the kind of experiment: Adenylate cyclase assay, CHO cell membranes, forskolin stimulated. Format: biochemical. As to conditions: forskolin 1 μM.

Structures are written as SMILES.

Take `CNC(=O)[C@H]1O[C@@H](n2cnc3c(NCc4cccc(I)c4)ncnc32)[C@H](O)[C@@H]1O` [IB-MECA, N^6-(3-iodobenzyl)-adenosine-5′-N-methyluronamide]: the “effect on short-circuit current” value with rabbit iris-ciliary body is listed as “significant increase in the short-circuit current”. The “mean rise of intracellular Ca2+” value with HCE cells (100 nM IB-MECA) is 17 ± 5 nM; in the test on HCE cells (1 μM IB-MECA), 22 ± 6 nM. Further, the “Maximal inhibition of adenylate cyclase” value on human A3 receptor was ~60 % of total stimulation.

For the origin of these results see US6528516B1, “Methods for reducing intraocular pressure using A3 adenosine receptor antagonists” (Trustees of the University of Pennsylvania, The Center for …, priority 1998, dated 2003).
